Measured values taken from patent US11000033B2, “Ketone or oxime compound, and herbicide” (NISSAN CHEMICAL CORPORATION, priority 2014, dated 2021).

What was measured:
Format in all cases: in vivo
[1] = system: Echinochloa oryzacola Vasing.; assay: Test Example 2: herbicidal activity, application during weed generation in submerged conditions (symbol A); conditions: Table 23; application herbicide amount 320 g/ha; grade 0-5 by criteria of Test Example 1
Summary of the method: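 Each pot contained alluvial soil under 4 cm of water with seeds of all three weeds sown together. Following growth at 25° C. to 30° C. to the one- to two-leaf stage, the floodwater received diluted emulsion at a predetermined amount; visual assessment followed at 3 weeks.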

Leptochloa chinensis = assay: Test Example 3: herbicidal effect by foliage application, Wagner pot (symbol D); conditions: application herbicide amount 320 g/ha
Summary of the method: (§1)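 Seeds sown in alluvial soil kept under 0.1–0.5 cm water, greenhouse 25–30 °C; 14 d growth. Leaves treated by small sprayer with water-diluted emulsion at a predetermined rate. Effect graded by set scale, 3 weeks.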

Cyperus difformis = assay: Test Example 3: herbicidal effect by foliage application, Wagner pot (symbol E); conditions: application herbicide amount 320 g/ha
Summary of the method: as §1

[2] = system: directly sowed rice plant; assay: Test Example 3: effect on crop by foliage application, Wagner pot (symbol b); conditions: application herbicide amount 320 g/ha
Summary of the method: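 Wagner pot (1/10000 are), alluvial soil, submerged 0.1–0.5 cm; sown E. crus-galli var. crus-galli, L. chinensis, C. difformis, rice; greenhouse 25–30 °C.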

Setaria viridis = assay: Test Example 4: herbicidal effect by soil treatment (symbol G); conditions: application herbicide amount 320 g/ha
Summary of the method: (§2)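 Seeds were sown in sterilized diluvial soil, covered with about 1.5 cm of soil, and the soil surface was sprayed with a water-diluted emulsion of the compound at a predetermined rate. Plants grew in a greenhouse at 25° C. to 30° C.; effects were scored visually 3 weeks after application.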

Avena fatua [3] = assay: Test Example 4: herbicidal effect by soil treatment (symbol I); conditions: application herbicide amount 320 g/ha
Summary of the method: as §2

Alopecurus myosuroides = assay: Test Example 4: herbicidal effect by soil treatment (symbol J); conditions: application herbicide amount 320 g/ha
Summary of the method: as §2

Lolium multiflorum Lam. = assay: Test Example 4: herbicidal effect by soil treatment (symbol K); conditions: application herbicide amount 320 g/ha
Summary of the method: as §2

Abutilon theophrasti = assay: Test Example 4: herbicidal effect by soil treatment (symbol M); conditions: application herbicide amount 320 g/ha
Summary of the method: as §2

Amaranthus retroflexus = assay: Test Example 4: herbicidal effect by soil treatment (symbol N); conditions: application herbicide amount 320 g/ha
Summary of the method: as §2

Chenopodium album [4] = assay: Test Example 4: herbicidal effect by soil treatment (symbol O); conditions: application herbicide amount 320 g/ha
Summary of the method: as §2

Galium spurium = assay: Test Example 4: herbicidal effect by soil treatment (symbol Q); conditions: application herbicide amount 320 g/ha
Summary of the method: as §2

rice = assay: Test Example 4: effect on crop by soil treatment (symbol b); conditions: application herbicide amount 320 g/ha
Summary of the method: (§3)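 Seeds were sown in spots on sterilized diluvial soil in a plastic box and covered with about 1.5 cm of soil. Plants were then grown in a greenhouse at 25° C. to 30° C.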

wheat = assay: Test Example 4: effect on crop by soil treatment (symbol e); conditions: application herbicide amount 320 g/ha
Summary of the method: as §3

Avena fatua [5] = assay: Test Example 5: herbicidal effect by foliage application, plastic box (symbol I); conditions: 320 g/ha, 3 weeks after application
Summary of the method: (§4)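 Visual herbicidal score, taken three weeks post-application, of seedlings sprayed on the foliage with water-diluted emulsion at a predetermined amount; plants were 14 days old, greenhouse-raised at 25° C. to 30° C.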

Chenopodium album [6] = assay: Test Example 5: herbicidal effect by foliage application, plastic box (symbol O); conditions: 320 g/ha, 3 weeks after application
Summary of the method: as §4

Stellaria media = assay: Test Example 5: herbicidal effect by foliage application, plastic box (symbol P); conditions: 320 g/ha, 3 weeks after application
Summary of the method: as §4

corn = assay: Test Example 5: effect on crop by foliage application, plastic box (symbol c); conditions: 320 g/ha, 3 weeks after application
Summary of the method: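 A greenhouse held between 25° C. and 30° C. was used to grow plants sown spot-wise, beneath ~1.5 cm of soil, in boxes of sterilized diluvial soil.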

SMILES	Herbicidal effect grade, A: Echinochloa oryzacola Vasing. [1]	herbicidal effect on D (Leptochloa chinensis), grade 0-5 (Leptochloa chinensis)	herbicidal effect on E, grade 0-5 (Cyperus difformis)	effect on crop b (directly sowed rice plant), grade 0-5 [2]	Herbicidal effect grade, G: Setaria viridis (Setaria viridis)	Herbicidal effect grade, I: Avena fatua (Avena fatua [3])	Herbicidal effect grade, J: Alopecurus myosuroides (Alopecurus myosuroides)	Herbicidal effect grade, K: Lolium multiflorum Lam. (Lolium multiflorum Lam.)	Herbicidal effect grade, M: Abutilon theophrasti (Abutilon theophrasti)	Herbicidal effect grade, N: Amaranthus retroflexus (Amaranthus retroflexus)	Herbicidal effect grade, O: Chenopodium album (Chenopodium album [4])	Herbicidal effect grade, Q: Galium spurium (Galium spurium)	Effect on crop grade, b: directly sowed rice plant (rice)	Effect on crop grade, e: wheat (wheat)	I: Avena fatua, herbicidal effect (criteria of Test Example 1) (Avena fatua [5])	O: Chenopodium album, herbicidal effect (criteria of Test Example 1) (Chenopodium album [6])	P: Stellaria media, herbicidal effect (criteria of Test Example 1) (Stellaria media)	c: corn, effect on crop (criteria of Test Example 1) (corn)	further results
CON=C(C)CC1CC(O)=C(c2c(C)cc(-c3ccc(F)c(Cl)c3)cc2C)C1=O (stereo not drawn) [6-085]	5 (Herbicidal ratio of 90% or more (almost completely withered))	5 (Herbicidal ratio of 90% or more (almost completely withered))	5 (Herbicidal ratio of 90% or more (almost completely withered))	5 (Herbicidal ratio of 90% or more (almost completely withered))	5 (Herbicidal ratio of 90% or more (almost completely withered))	5 (Herbicidal ratio of 90% or more (almost completely withered))	5 (Herbicidal ratio of 90% or more (almost completely withered))	5 (Herbicidal ratio of 90% or more (almost completely withered))	4 (Herbicidal ratio of 70% or higher and lower than 90%)	5 (Herbicidal ratio of 90% or more (almost completely withered))	5 (Herbicidal ratio of 90% or more (almost completely withered))	4 (Herbicidal ratio of 70% or higher and lower than 90%)	1 (Herbicidal ratio of 5% or higher and lower than 20%)	3 (Herbicidal ratio of 40% or higher and lower than 70%)	5 (Herbicidal ratio of 90% or more (almost completely withered))	5 (Herbicidal ratio of 90% or more (almost completely withered))	3 (Herbicidal ratio of 40% or higher and lower than 70%)	3 (Herbicidal ratio of 40% or higher and lower than 70%)	
CON=C(C)CC1CC(O)=C(c2c(C)cc(-n3cccn3)cc2C)C1=O (stereo not drawn) [6-073]	4 (Herbicidal ratio of 70% or higher and lower than 90%)	5 (Herbicidal ratio of 90% or more (almost completely withered))	5 (Herbicidal ratio of 90% or more (almost completely withered))	5 (Herbicidal ratio of 90% or more (almost completely withered))											5 (Herbicidal ratio of 90% or more (almost completely withered))	3 (Herbicidal ratio of 40% or higher and lower than 70%)	2 (Herbicidal ratio of 20% or higher and lower than 40%)	4 (Herbicidal ratio of 70% or higher and lower than 90%)	G: Setaria viridis, herbicidal effect grade (Setaria viridis): 5 (Herbicidal ratio of 90% or more (almost completely withered)); I: Avena fatua, herbicidal effect grade (Avena fatua [3]): 3 (Herbicidal ratio of 40% or higher and lower than 70%); J: Alopecurus myosuroides, herbicidal effect grade (Alopecurus myosuroides): 2 (Herbicidal ratio of 20% or higher and lower than 40%); K: Lolium multiflorum Lam., herbicidal effect grade (Lolium multiflorum Lam.): 5 (Herbicidal ratio of 90% or more (almost completely withered)); M: Abutilon theophrasti, herbicidal effect grade (Abutilon theophrasti): 0 (Herbicidal ratio of 5% or lower (almost no effect)); N: Amaranthus retroflexus, herbicidal effect grade (Amaranthus retroflexus): 0 (Herbicidal ratio of 5% or lower (almost no effect)); O: Chenopodium album, herbicidal effect grade (Chenopodium album [4]): 0 (Herbicidal ratio of 5% or lower (almost no effect)); Q: Galium spurium, herbicidal effect grade (Galium spurium): 0 (Herbicidal ratio of 5% or lower (almost no effect)); b: directly sowed rice plant, effect on crop grade (rice): 5 (Herbicidal ratio of 90% or more (almost completely withered)); e: wheat, effect on crop grade (wheat): 2 (Herbicidal ratio of 20% or higher and lower than 40%)
CON=C(C)CC1CC(OC(=O)COc2ccccc2)=C(c2c(C)cc(C)cc2OC)C1=O (stereo not drawn) [6-091]	5 (Herbicidal ratio of 90% or more (almost completely withered))	5 (Herbicidal ratio of 90% or more (almost completely withered))	5 (Herbicidal ratio of 90% or more (almost completely withered))	5 (Herbicidal ratio of 90% or more (almost completely withered))	5 (Herbicidal ratio of 90% or more (almost completely withered))	5 (Herbicidal ratio of 90% or more (almost completely withered))	5 (Herbicidal ratio of 90% or more (almost completely withered))	5 (Herbicidal ratio of 90% or more (almost completely withered))	5 (Herbicidal ratio of 90% or more (almost completely withered))	4 (Herbicidal ratio of 70% or higher and lower than 90%)	3 (Herbicidal ratio of 40% or higher and lower than 70%)	0 (Herbicidal ratio of 5% or lower (almost no effect))	5 (Herbicidal ratio of 90% or more (almost completely withered))	5 (Herbicidal ratio of 90% or more (almost completely withered))	5 (Herbicidal ratio of 90% or more (almost completely withered))	3 (Herbicidal ratio of 40% or higher and lower than 70%)	4 (Herbicidal ratio of 70% or higher and lower than 90%)	5 (Herbicidal ratio of 90% or more (almost completely withered))	
CON=C(C)CC1CC(OS(=O)(=O)N(C)C)=C(c2c(C)cc(C)cc2OC)C1=O (stereo not drawn) [6-095]	5 (Herbicidal ratio of 90% or more (almost completely withered))	5 (Herbicidal ratio of 90% or more (almost completely withered))	5 (Herbicidal ratio of 90% or more (almost completely withered))	5 (Herbicidal ratio of 90% or more (almost completely withered))	5 (Herbicidal ratio of 90% or more (almost completely withered))	3 (Herbicidal ratio of 40% or higher and lower than 70%)	5 (Herbicidal ratio of 90% or more (almost completely withered))	5 (Herbicidal ratio of 90% or more (almost completely withered))	5 (Herbicidal ratio of 90% or more (almost completely withered))	1 (Herbicidal ratio of 5% or higher and lower than 20%)	0 (Herbicidal ratio of 5% or lower (almost no effect))	0 (Herbicidal ratio of 5% or lower (almost no effect))	5 (Herbicidal ratio of 90% or more (almost completely withered))	2 (Herbicidal ratio of 20% or higher and lower than 40%)	5 (Herbicidal ratio of 90% or more (almost completely withered))	5 (Herbicidal ratio of 90% or more (almost completely withered))	1 (Herbicidal ratio of 5% or higher and lower than 20%)	5 (Herbicidal ratio of 90% or more (almost completely withered))	
